Test results published in patent US7432247B2, “Methods of cardioprotection using dichloroacetate in combination with an inotrope” (The Governors of the University of Alberta, priority 2002, dated 2008).
“And” between values parts separate entries of the source, which are not always exact repeats. Equal values may be shown once.

Assays:
Type in all cases: in vivo, human
[1] = Observed side effects of DCA in patients
[2] = DCA plasma levels in pediatric heart surgery patients, bolus and 24 hour infusion (Example C); conditions: for Average Optimum Mean of DCA Plasma Levels, mM at 1 hr / Average Optimum Mean of DCA Plasma Levels, mM at 6 hr / Average Optimum Mean of DCA Plasma Levels, mM at 12 hr / Average Optimum Mean of DCA Plasma Levels, mM at 24 hr: patients with greatest degree of clinical benefits
Procedure: (§1) In this trial, 53 infants were recruited to participate in a study, of which 51 patients met inclusion criteria after parental consent. Two dosing groups resulted from the study team changing the dosing protocol after the data from the initial 10 patients were analyzed. The data from patients number 1 to number 10 was analyzed for DCA therapeutic blood levels and therapeutic effect. A recommendation by the research team was made to increase the bolus dose of DCA and to decrease the infusion dose of DCA to maintain a DCA dose range of 1 mM for 24 hours. The intent was to administer the new protocol at patient number 20. The 1997 Epicore power calculations were based on separation of the study groups patients into group A of n=20 patients and Group B of n=31 patients
(§2) DCA (50 mg/kg) or placebo was injected into the aortic root immediately prior to removing aortic cross clamp. The coded solutions were made such that a dose of 1 ml/kg provided either a DCA therapeutic level of 1 mM plasma concentration of DCA, or a placebo solution. Immediately thereafter, an infusion of DCA at 25 mg/kg/hr or placebo in the same volume was initiated and run for 24 hours. Based on the pharmacokinetics of DCA, this was expected to maintain plasma levels of DCA in the therapeutic range of (0.2-1 mM). However, the plasma concentrations of DCA were below 1 mM after the first hour interval, and that the 24 hour plasma concentrations were elevated above 1 mM DCA levels at the 24 hour interval, a decision was made to modify the dosing protocol. This change in dosing protocol was approved by the Ethics Committee, but not implemented until patient number 24. All blood samples were analyzed by HPLC for DCA concentration. • (ii) Group B
(§3) DCA (100 mg/kg) or placebo was injected into the aortic root immediately prior to removing aortic cross clamp. The coded solutions were made such that a dose of 1 ml/kg provided either a DCA therapeutic level of 1 mM plasma concentration of DCA, or a placebo solution. Immediately thereafter, an infusion of DCA at 12.5 mg/kg/hr or placebo in the same volume was initiated and run for 24 hours. Based on the pharmacokinetics of DCA, this was expected to maintain plasma levels of DCA in the therapeutic range of (0.2-1 mM). All blood samples were analyzed by HPLC for DCA concentration.
Arterial blood samples were obtained from patients at the following times:
c. One hour after discontinuing cardiopulmonary bypass.
d. Six hours after discontinuing cardiopulmonary bypass
e. Twelve hours after discontinuing cardiopulmonary bypass.
f. Twenty four hours after discontinuing cardiopulmonary bypass.
Blood samples were collected from indwelling arterial lines into citrate-containing tubes (0.5 ml blood samples). The samples were spun in the microfuge, the plasma separated, and frozen immediately for later analysis. All plasma samples were stored at −80 degrees centigrade, until further processing. Plasma glucose and lactate were determined using a Sigma glucose kit and a spectrophotometric assay involving lactate dehydrogenase respectively. Plasma fatty acid levels were measured using an ELISA system and WAKO free fatty acid kit.

[3] = Mortality in the adult CABG study (Example A); conditions: DCA group, 8 adult patients, 50 mg/kg bolus
Procedure: DCA or saline was administered to 18 patients undergoing elective cardiac bypass grafting surgery (CABG) in a double blinded randomized manner DCA (50 mg/kg in 100 ml of saline) or placebo was injected into the aortic root, immediately prior to removing aortic cross clamp. Based on the pharmacokinetics of DCA, we anticipated that this would produce a plasma concentration of approximately 1 mM. The study consisted of 8 DCA-treated patients and 10 placebo-treated patients.
The intervention involved DCA (50 mg/kg) or placebo injected into the aortic root immediately prior to removing aortic cross clamp. The coded solution was made such that a dose of 1 ml/kg provides the appropriate dose of DCA or placebo. Based on the pharmacokinetics of DCA, this was expected to result in a plasma level of DCA in the therapeutic range of (1 mM). All blood samples were analyzed by HPLC for DCA concentration.

[4] = Pediatric heart surgery study, DCA bolus and infusion vs placebo: inotrope score, ICU time, ventilator time (Example C); parameters: reduction of Inotrope Score compared to placebo: concentration or dose not given beside the values; conditions: for average decrease in Inotrope Score per patient compared to placebo: over the 24 hour period
Procedure: This study was a randomized, placebo-controlled, double blinded, single surgeon, study of the use of DCA in 51 high-risk pediatric patients requiring heart surgery to correct complex congenital heart lesions.
as §1, §2, §3
In both the operating room at the end of cardiopulmonary bypass and in the intensive care unit, parenteral drugs were scored on an hourly basis with 1 point allotted for each level for each bolus or infusion given within the previous hour within the first 24 hours post-operatively. Thus at the end of 24 hours, high scores indicated poorer cardiac function.

[5] = Plasma DCA levels after 50 mg/kg bolus in adult CABG patients (Example A); conditions: 50 mg/kg Na+ dichloroacetate, 1 hour following administration, n = 8 adult patients
Procedure: […] Based on the pharmacokinetics of DCA, we anticipated that this would produce a plasma concentration of approximately 1 mM. The study consisted of 8 DCA-treated patients and 10 placebo-treated patients.
[…] The coded solution was made such that a dose of 1 ml/kg provides the appropriate dose of DCA or placebo. Based on the pharmacokinetics of DCA, this was expected to result in a plasma level of DCA in the therapeutic range of (1 mM). All blood samples were analyzed by HPLC for DCA concentration.
Plasma samples were processed for DCA levels using a high performance liquid chromatography (HPLC) technique that separated the DCA from other plasma constituents. In brief, 20 μl of plasma sample was injected into a Beckman Gold HPLC containing a IonoBpher 5A column (250×4.6 mm LxID) and a AX Guard Column. The mobile phase of the column consisted of 10^-3 M pyromellitate buffer (pH=4.0). The flow rate of the HPLC was set at 3.0 ml/min and the DCA eluted from the column was detected by comparing DCA elution times to acetate, monochloroacetate, and trichloroacetate standards. Heart ventricular biopsy samples were taken at 0, and 20 minutes, and at 1 hour, following release of the cross clamp and reperfusion of the heart muscle, and immediately frozen in liquid N2. Blood samples were also taken at various intervals during the reperfusion period between 0 to 24 hours post-surgery.

[6] = Group A: 50 mg/kg bolus and 25 mg/kg/hr infusion
[7] = Group B: 100 mg/kg bolus and 12.5 mg/kg/hr infusion
[8] = Group A: 50 mg/kg bolus and 25 mg/kg/hour infusion
[9] = Group A: 50 mg/kg bolus and 25 mg/kg/hour infusion, 23 patients
[10] = Group B: 100 mg/kg bolus and 12.5 mg/kg/hour infusion
[11] = Group B: 100 mg/kg bolus and 12.5 mg/kg/hour infusion, 24 patients

O=C(O)C(Cl)Cl [DCA, dichloroacetate]
side-effects ([1]; patients): not have significant side-effects, although some patients experience mild drowsiness | adverse effects in previous (pilot) studies ([1]; previous studies): no adverse effects | optimum mean DCA plasma level ([2]; Example C, Group B, 1 to 6 hour interval): 1 mM | Average DCA Plasma Levels, mM at 6 hr [2, 6]: 1.134 mM | Average DCA Plasma Levels, mM at 12 hr [2, 6]: 1.771 mM | Average Optimum Mean of DCA Plasma Levels, mM at 1 hr [2, 6]: 1.0 mM | Average Optimum Mean of DCA Plasma Levels, mM at 6 hr [2, 6]: 0.916 mM | Average Optimum Mean of DCA Plasma Levels, mM at 12 hr [2, 6]: 1.52 mM and 1.523 mM | Average Optimum Mean of DCA Plasma Levels, mM at 24 hr [2, 6]: 2.29 mM and 2.288 mM | Average DCA Plasma Levels, mM at 1 hr [2, 7]: 1.131 mM | Average DCA Plasma Levels, mM at 6 hr [2, 7]: .894 mM | Average DCA Plasma Levels, mM at 12 hr [2, 7]: 1.427 mM | Average DCA Plasma Levels, mM at 24 hr [2, 7]: 2.231 mM | Average Optimum Mean of DCA Plasma Levels, mM at 1 hr [2, 7]: 1.012 mM | Average Optimum Mean of DCA Plasma Levels, mM at 6 hr [2, 7]: 1.0 mM | Average Optimum Mean of DCA Plasma Levels, mM at 12 hr [2, 7]: 1.0 mM | Average Optimum Mean of DCA Plasma Levels, mM at 24 hr [2, 7]: 1.0 mM | mortality [3]: no mortalities | decrease of ventilator time compared to placebo [4, 8]: 47% | reduction of ventilator time compared to placebo [4, 8]: 46 h | decrease of time in ICU compared to placebo [4, 9]: 41% | reduction of time in ICU compared to placebo [4, 9]: 60 h | reduction of Inotrope Score compared to placebo ([4]; Group A, by 1 hour): 50% | reduction of Inotrope Score compared to placebo ([4]; Group A, by 12 hours): 45% | reduction of Inotrope Score compared to placebo ([4]; Group A, by 24 hours): 38% | average decrease in Inotrope Score per patient compared to placebo ([4]; Group A): 44% | decrease of ventilator time compared to placebo [4, 10]: 23% | reduction of ventilator time compared to placebo [4, 10]: 18 h and 19 h | decrease of time in ICU compared to placebo [4, 11]: 40% | reduction of time in ICU compared to placebo [4, 11]: 50 h | reduction of Inotrope Score compared to placebo ([4]; Group B, by 1 hour): 57% | reduction of Inotrope Score compared to placebo ([4]; Group B, by 12 hours): 49% | reduction of Inotrope Score compared to placebo ([4]; Group B, by 24 hours): 45% | average decrease in Inotrope Score per patient compared to placebo ([4]; Group B): 51% | Plasma Dichloroacetate Levels [5]: approximately 1 mM | Plasma Dichloroacetate Levels ([5]; listed as Dichloroacetate): 0.948 ± 0.061 mM
